Holding throughout (format): cell-based
One test deals with P. ovale éco-R. The test can be described thus: Fungicidal activity: checkerboard combined with Afnor membrane filtration, 5 min contact (Example 2, Table 2). The following applies: Pityrosporium ovale, pH 9, read-out: Mg; for log reduction at 2 %: product alone at 2 %. Here is the method:
(§1) La technique utilisée est originale car elle utilise à la fois le principe de la technique de l'échiquer et celui de la norme Afnor par filtration sur membrane relative à la fongicidie avec un temps de contact germe-molécules de 5 minutes.
(§2) C'est une macro-méthode qui a donc été réalisée ici avec validations à chaque essai du témoin solvant des molécules (Tween® 20 %, éthanol 17 % dans l'eau distillée).
(§3) L'association de l'octopirox avec le crotamiton a été testé selon la méthodologie de l'exemple 1 sur une souche Pityrosporium ovale éco-R et C. albicans ATCC 9021.
Le tableau 2 représente les résultats obtenus sur P. ovale éco-R après cinq minutes de contact pour l'association : • crotamiton 1 % - octopirox 1 % pour lequel nous avons 100 % d'efficacité • alors que les produits seuls à double ou quadruple concentrations sont moins actifs.
(§4) Le même solvant a été utilisé et validé à chaque essai comme le spécifie la norme Afnor.
(§5) Les essais de l'exemple 2 ont été réalisés avec un pH plus basique = 9.

In a further test the test system is C. albicans ATCC 9021. The test is described as follows: Fungicidal activity: checkerboard combined with Afnor membrane filtration, 5 min contact (Example 2, Table 3). The following applies: Candida albicans, ATCC9021, 5 min, pH 9, read-out: Mg; for log reduction at 2 %: product alone at 2 %. Here is the method: as §1, §2, §3, §4
Ces Résultats ont été confirmés sur une levure de référence Afnor (C.albicans ATCC 9021). Les résultats sont reportés dans le tableau 3.
as §5

Test [1] has as its system Pityrosporium ovale sauvages dont une éco-R. The test can be described thus: Fungicidal activity: checkerboard combined with Afnor membrane filtration, 5 min contact (Example 1). As to conditions: pH about 8, read-out: Mg : moyenne géométrique du Log 10 de la réduction du nombre de germes; for log reduction at 2 %: product alone at 2 % (m/v); for log reduction at 4 %: product alone at 4 % (m/v). Here is the method: CMF définissant la concentration minimale de fongicide pour laquelle on obtient une diminution de 4.Log 10 de l'inoculum ensemencé en 5 minutes de contact à 20°C.
Des souches de Malassezia furfur (Pityrosporum ovale) ont été testées pour leur sensibilité vis-à-vis des principes actifs seuls ou bien en association selon l'invention.
Les souches sont issues du Laboratoire de Parasitologie du Centre Hospitalier Régional de Rangueil de TOULOUSE (France) et une souche est éconazole résistante (éco-R). Elles ont été cultivées lors des essais sur milieu Dixon solide.
as §1, §2
Ce solvant inhibe légèrement l'activité de la ciclopiroxolamine, et il faut donc s'attendre à de meilleurs résultats en pratique. Les autres témoins sont celui de la vigueur de la souche et de l'efficacité des produits seuls, soit : - ciclopiroxolamine 4 % - crotamiton 4 %
Le tableau 1 représente les moyennes géométiques de la réduction logarithmique sur deux Pityrosporium ovale sauvages dont une éco-R, le nombre d'essais ainsi que le pourcentage d'efficacité.
La norme Afnor considère qu'il y a fongicidie pour une réduction de 4 Log 10 de l'inoculum après 15 minutes de contact.
Le pH de l'ensemble de ces études se situe autour de 8.

For `Cc1cc(CC(C)CC(C)(C)C)n(O)c(=O)c1` (stereo not drawn) [Octo, octopirox], the log reduction at 2 % came out at 1.85 in the test with P. ovale éco-R and 3.18 in the test on C. albicans ATCC 9021. Also, in the test with C. albicans ATCC 9021 (product alone at 1 %), the log reduction at 1 % is 0.36.
`CC=CC(=O)N(CC)c1ccccc1C` [Crota, N-éthyl-N-O-tolylcrotonamide]: in test [1] (product alone at 1 % (m/v)), the log reduction at 1 % came to 0.03. Further, the log reduction at 2 % in test [1] stood at 0.77; in the test on P. ovale éco-R, 1.59; in the test with C. albicans ATCC 9021 it was 2.43. Also, the log reduction at 4 % in test [1] amounted to 3.77; with P. ovale éco-R (product alone at 4 %) it was 3.26; in the test on C. albicans ATCC 9021 (product alone at 4 %) it was 4.95.
As for `Cc1cc(C2CCCCC2)n(O)c(=O)c1` [CPO, ciclopirox olamine], in test [1], the log reduction at 2 % was found to be 0.43 and the log reduction at 4 % was determined as 2.05.

(Values after patent EP0771187B1, “NOVEL COMBINATION PRODUCT COMPRISING AN ANTIFUNGAL AGENT AND CROTAMITON AS AN ANTIFUNGAL ACTIVITY ENHANCER AND DERMATOLOGICAL OR COSMETIC COMPOSITIONS COMPRISING SAME” (Pierre Fabre Dermo-Cosmetique, priority 1994, dated 1996).)
